Results reported in patent publication US11566007B2, “Ras inhibitors” (Revolution Medicines, Inc., priority 2019, dated 2023).
Where two headings read alike, the source gives them in different places.

Assays:
[1] = biological target: NRAS WT (Homo sapiens (Human), UniProt P01111+P62937); experiment: Ras-Raf (BRAF RBD) disruption / FRET / MOA assay, NRAS WT; assay type: biochemical
In short: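 Compounds were tested as a 10-point 3-fold dilution series from 30 μM final for their ability to drive ternary complex formation between nucleotide-loaded Ras and cyclophilin A, displacing the BRAF RBD. After 3 h at 25° C., anti-His Eu-W1024 (10 nM) and anti-GST allophycocyanin (50 nM) were added for 1.5 h. A TR-FRET ratio decrease versus DMSO gave IC50.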

[2] = tested on: NCI-H358 cells (K-Ras G12C); experiment: Potency assay: pERK in NCI-H358 cells; assay type: cell-based, human; settings: Homo sapiens, NCI-H358; H358 KRAS G12C; read-out: pERK EC50
In short: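 4 h cpd, 37 °C; 10-pt 3-fold series, 10 mM DMSO top stock, duplicates. Readout pERK: AlphaLISA SureFire Ultra or In-Cell Western (IR-800CW secondary, DRAQ5 DNA stain). IC50, 4-PL fit vs log conc.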

[3] = read-out: IC50* NRAS WT FRET data

Sequence of NRAS WT (P01111 whole entry): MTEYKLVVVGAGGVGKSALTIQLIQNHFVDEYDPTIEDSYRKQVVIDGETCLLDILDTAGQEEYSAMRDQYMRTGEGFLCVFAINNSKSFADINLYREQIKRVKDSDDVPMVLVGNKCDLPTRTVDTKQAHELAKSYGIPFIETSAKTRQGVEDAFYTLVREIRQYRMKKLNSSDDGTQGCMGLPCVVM
Sequence of NRAS WT (P62937 whole entry): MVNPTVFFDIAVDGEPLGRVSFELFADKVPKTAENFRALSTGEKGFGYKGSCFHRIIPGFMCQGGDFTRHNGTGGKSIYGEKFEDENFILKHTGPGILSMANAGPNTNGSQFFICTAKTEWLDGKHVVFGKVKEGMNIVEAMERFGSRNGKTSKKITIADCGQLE

| Structure (SMILES) | IC50 [1, 3] [µM] | EC50 [2] [µM] | IC50 ([1]; IC50* NRAS WT FRET data) [µM] |
| --- | --- | --- | --- |
| C=CC(=O)N1CC2(C1)OCCN2C(=O)N(C)[C@H](C(=O)N[C@H]1Cc2nc(cs2)-c2ccc3c(c2)c(c(-c2cccnc2[C@H](C)OC)n3CC)CC(C)(C)COC(=O)[C@@H]2CCCN(N2)C1=O)C(C)C (atropisomer, axis not shown) [Example A620] | 0.1 to 1 | < 5 | – |
| CO[C@@H](C)c1ncccc1-c1c2c3cc(ccc3n1CC(F)(F)F)-c1cccc(c1)C[C@H](NC(=O)[C@@H](COC1CN(C(=O)C#CC(C)(C)N(C)C)C1)C(C)C)C(=O)N1CCC[C@H](N1)C(=O)OCC(C)(C)C2 (atropisomer, axis not shown) [Example A376] | 1 to 10 | < 5 | – |
| CCn1c(-c2cccnc2[C@H](C)OC)c2c3cc(ccc31)-c1cc(CF)cc(c1)C[C@H](NC(=O)[C@H](C(C)C)N(C)C(=O)[C@H]1CCN(C(=O)C#CC(C)(C)N(C)C)C1)C(=O)N1CCC[C@H](N1)C(=O)OCC(C)(C)C2 (atropisomer, axis not shown) [Example A658] | 1 to 10 | < 5 | – |
| CCn1c(-c2cccnc2[C@H](C)OC)c2c3cc(ccc31)-c1csc(n1)C[C@H](NC(=O)C[C@H](C)OC1CN(C(=O)C#CC(C)(C)N(C)C)C1)C(=O)N1CCC[C@H](N1)C(=O)OCC(C)(C)C2 (atropisomer, axis not shown) [Example A637] | 1 to 10 | < 5 | – |
| C=CC(=O)N1CCC12CN(C(=O)N(C)[C@H](C(=O)N[C@H]1Cc3nc(cs3)-c3ccc4c(c3)c(c(-c3cccnc3[C@H](C)OC)n4CC)CC(C)(C)COC(=O)[C@@H]3CCCN(N3)C1=O)C(C)C)C2 (atropisomer, axis not shown) [Example A393] | 0.1 to 1 | < 5 | – |
| C=CC(=O)N1CC[C@H](C(=O)N(C)[C@H](C(=O)N[C@H]2CC3=NC=C(O3)c3ccc4c(c3)c(c(-c3cccnc3[C@H](C)OC)n4CC)CC(C)(C)COC(=O)[C@@H]3CCCN(N3)C2=O)C(C)C)C1 (atropisomer, axis not shown) [Example A278] | 1 to 10 | < 5 | – |
| C=CC(=O)N1C[C@@H]2CN(C(=O)N(C)[C@H](C(=O)N[C@H]3Cc4nc(cs4)-c4ccc5c(c4)c(c(-c4cccnc4[C@H](C)OC)n5CC)CC(C)(C)COC(=O)[C@@H]4CCCN(N4)C3=O)C(C)C)[C@@H]2C1 (atropisomer, axis not shown) [Example A561] | 1 to 10 | < 5 | – |
| CO[C@@H](C)c1ncccc1-c1c2c3cc(ccc3n1CC(F)(F)F)-c1cccc(c1)CN(NC(=O)[C@@H](COC1CN(C(=O)C#CC(C)(C)N(C)C)C1)C(C)C)C(=O)N1CCC[C@H](N1)C(=O)OCC(C)(C)C2 (atropisomer, axis not shown) [Example A601] | 1 to 10 | < 5 | – |
| C=CC(=O)N1CC[C@H](C(=O)N(C)[C@H](C(=O)N[C@H]2CC3=NN=C(O3)c3ccc4c(c3)c(c(-c3cccnc3[C@H](C)OC)n4CC)CC(C)(C)COC(=O)[C@@H]3CCCN(N3)C2=O)C(C)C)C1 (atropisomer, axis not shown) [Example A447] | 1 to 10 | < 5 | – |
| C=CC(=O)N1CCOC2(CCN(C(=O)N(C)[C@H](C(=O)N[C@H]3Cc4nc(n(C)n4)-c4ccc5c(c4)c(c(-c4cccnc4[C@H](C)OC)n5CC(F)(F)F)CC(C)(C)COC(=O)[C@@H]4CCCN(N4)C3=O)C(C)C)CC2)C1 (atropisomer, axis not shown) [Example A606] | 0.1 to 1 | < 5 | – |
| CCn1c(-c2cccnc2[C@H](C)OC)c2c3cc(ccc31)-c1cccc(c1)C[C@H](NC(=O)[C@H](C(C)C)N1CC[C@@]3(CCN(C(=O)C#C[C@@H]4COCCN4C)C3)C1=O)C(=O)N1CCC[C@H](N1)C(=O)OCC(C)(C)C2 (atropisomer, axis not shown) [Example A549] | – | < 5 | 1 to 10 |
| C=CC(=O)N1CCO[C@H]2CN(C(=O)N(C)[C@H](C(=O)N[C@H]3C[C@H]4CN(CCO4)c4ccc5c(c4)c(c(-c4cccnc4[C@H](C)OC)n5CC)CC(C)(C)COC(=O)[C@@H]4CCCN(N4)C3=O)C(C)C)C[C@H]21 [Example A562] | 1 to 10 | < 5 | – |
